From patent publication US20120315254A1, “METHODS AND COMPOSITIONS FOR ENHANCING FAT GRAFT SURVIVAL” (Sebana Medical Ltd., priority 2010, published 2012) come the findings set out here.

Assay [1] deals with human umbilical vein endothelial cells (HUVECs). Put plainly: HUVEC proliferation ([3H]-thymidine incorporation). In kind it is cell-based. The conditions noted are these: inhibitor exposure for 3 hours, without EPO. Here is the method: To investigate EPO-induced angiogenesis through mechanisms involving pro-angiogenic factors, the present inventor measured the proliferation of EPO-treated HUVECs in the presence of various pro-angiogenic factor inhibitors. To this end, HUVECs (2×10^5 cells/well) were cultured on fibronectin-coated 12-well plates in EBM-2. The cultured HUVECs were treated with or without 100 IU/ml EPO for 48 hours, and then exposed for 3 hours to (a) 0.25 mg/ml bevacizumab, (b) 100 nM of PD173074; an inhibitor of bFGF (Calbiochem, San Diego, Calif.), (c) 20 μM of tyrphostin AG 1296; a selective inhibitor of PDGF (Sigma), (d) a combination of bevacizumab, PD173074 and tyrphostin, and to (e) 100 nM wortmannin; a phosphatidylinositol 3-kinaz (PI 3-K) inhibitor (Sigma). Upon the completion of the experiment, the cells were washed with PBS and then incubated with 1 μCi/ml medium [^3H]-thymidine (NEN, Boston, Mass., USA) for 5 h at 37° C. Thereafter, 0.5 ml cold 10% Trichloroacetic acid (TCA) was added into each well for another 30 min at 4° C. To extract the ^3H-thymidine labeled DNA, 0.5 ml 1N NaOH was added to each well for 10 min at room temperature, and then 0.5 ml 1N HCl was added and mixed well. Samples of mixture solution (0.5 ml) was taken from each well and added to scintillation vials for the measurement of [^3H]-thymidine incorporation to DNA (cpm/mg protein). Duplicate cell counts were averaged for 3 experiments. Data were expressed as the percentage of control.

Assay [2] shares this test system. Put plainly: In vitro tube formation of HUVECs on matrigel. In kind it is cell-based. Here is the method:
The in vitro angiogenic potential of VEGF and EPO was measured by assessment of their ability to form tubes of endothelial cells on matrigel. To this end, human umbilical vein endothelial cells (HUVECs, LONZA, USA) were first cultured on fibronectin-coated 6-well plates in endothelial basal medium-2 (EBM-2, PromoCell, USA) until confluence and then the cells were treated with 0, 20 or 100 IU/ml EPO for 48 hours before their use in the assay (FIG. 7A). In a second experiment (FIG. 7B), HUVECs were exposed to 0, 100 IU/ml EPO or 200 ng/ml VEGF for 48 hours in EBM-2 with or without 0.25 mg/ml bevacizumab (Avastin®, Genentech, San Francisco, Calif., USA), a humanized monoclonal antibody that antagonizes the actions of VEGF. After 48 hours, the untreated HUVECs, the VEGF- and EPO-treated HUVECs, and the VEGF+bevacizumab- and EPO+bevacizumab-treated HUVECs were detached gently by 0.5% trypsin/EDTA, and then suspended in EBM-2. At the same time, frozen matrigel (Sigma Aldrich, St Louis Mo., USA) was thawed, and spread onto 96-well plates ([…]) at room temperature for 30 minutes to allow solidification. […] After 24 hours, the non-integrated cells were removed by washing and tube formation on the matrigel was assessed under a light microscope at 10× magnification. […]

The test system of assay [3] is CD31-positive endothelial cells. Put plainly: Microvascular density (MVD, CD31) in fat grafts. It counts as in vivo, CD-1 nude mice. Here is the method: Quantification of macrophage infiltration in the fat grafts was estimated by counting the number of CD68-positive cells in five fields per fat graft in all fat graft sections. Microvascular density (MVD) in fat grafts was determined in five regions of interest where the CD31 antibody signal was the most intense in each section in all of the fat graft sections. The number of macrophages and blood vessels in each region was counted under a light microscope at 400× magnification. The assessment in each fat graft was made by calculating the mean result in two different sections per fat graft and five different fields of view per section.
The paraffin-embedded fat graft sections were incubated overnight at room temperature with a monoclonal antibody against tissue CD31 (R&D Systems, Minneapolis Minn., USA) as previously described [Li et al. (2005) J Cell Biochem 95:559-570]. Upon completion of the incubation, the specimens were counterstained with hematoxylin. Mouse IgG was used as a negative control. The microvascular density (MVD) was determined in five regions of interest where the CD31 antibody signal was most intense. The number of blood vessels in each region was counted under a light microscope at […] magnification.

Assay [4] deals with bFGF, IGF-1, PDGF-BB, VEGFR-2, EPOR, MMP-2, PKB, phosphoPKB, caspase 3, cytochrome c. Put plainly: Expression of angiogenic, survival and pro-apoptotic factors in fat grafts (Western blotting, immunohistochemistry). It counts as in vivo, CD-1 nude mice. The settings on record: VEGF-treated vs PBS-treated fat grafts, Western blot; week 15. The procedure: (§1) Histological slides of the formalin-maintained samples were prepared and then stained with hematoxylin and eosin using standard procedures. Immunohistochemistry was performed using rabbit monoclonal antibodies against tissue CD31, VEGFR-2 and EPOR, and goat polyclonal IgG against VEGF (R&D Systems, Minneapolis Minn., USA), and CD68 (Dako, Glostrup, Denmark). The paraffin-embedded fat graft sections were incubated with the antibodies overnight at room temperature followed by incubation with appropriate secondary antibodies [Li et al. (2005) J Cell Biochem 95: 559-570]. Upon completion of the incubations, the specimens were counterstained with hematoxylin. Mouse IgG was used as a negative control. […]
The expression levels of the angiogenic factors, bFGF, IGF-1, PDGF-BB VEGFR-2, EPOR and MMP-2, the cell survival factor PKB and phosphorylated PKB, and the pro-apoptotic factors caspase 3 and cytochrome c were determined in homogenates of the harvested fats grafts by Western blotting. […] The resultant bands were quantified by densitometry.
For orientation: In western blotting, separated proteins are transferred to a membrane and probed.

Assay [5] relates to VEGF. Put plainly: Plasma VEGF concentration and fat graft VEGF content (ELISA). In kind it is in vivo, CD-1 nude mice. The settings on record: VEGF-treated (200 ng/100 μl PBS) vs PBS-treated fat grafts; week 15. Here is the method: (§2) The first study comprised 30 seven-week-old female CD-1 nude mice (Harlan, Jerusalem, Israel). These mice were housed in cages in a room with an artificial 12-h light/dark cycle at a constant temperature range (24±2° C.) and relative humidity (55±10%). The mice were acclimated for one week prior to the study, and fed a standard laboratory chow and water ad libitum. The 30 mice were randomly divided into three equal groups and treated as follows: Group 1 mice were injected with 1 ml of human fat and were treated with sterile PBS (control group). Group 2 mice were injected with 1 ml human fat and were treated with 1000 IU/kg EPO (low-dose EPO group). […]
The duration of the study period of both experiments was 15 weeks from the start of fat transplantation. […] VEGF and EPO concentrations were determined in homogenates of samples of the fat grafts using commercial enzyme-linked immunosorbent assays (Quantikine® VEGF immunoassay Kit and Quantikine® WD® Erythropoietin Kit, R&D Systems, MN, USA) in accordance with the manufacturer's instructions.
(§3) After 15 weeks, all mice were humanely killed and the fat grafts were carefully dissected from their scalps (FIG. 1C). Each fat graft was weighed and the volume of the fat graft was measured by the liquid overflow method as previously described [Ayhan et al. (2001) Aesthetic Plast Surg 25:338-342]. […]
(In general: An ELISA detects its analyte on a solid surface through an enzyme-linked reagent.)

For assay [6], the system named is human fat grafts. Put plainly: Fat graft weight and volume 15 weeks after transplantation. In kind it is in vivo, CD-1 nude mice. The conditions noted are these: VEGF 200 ng/100 μl PBS every three days for 18 days; week 15; second experiment.
From the text: Fat was harvested from the thigh of a person by suction-assisted lipectomy under […] anesthesia. The fat was aspirated under local anesthesia using a 14-gauge blunt cannula, and then processed under sterile conditions for subsequent grafting into nude mice within two hours of its collection according to previously published protocols [Ullmann et al. (2005) Dermatol Surg 31:1304-7; Kurita et al. (2008) Plast Reconstr Surg 121:1033-1041].
as §2, §3

In assay [7] the test system is human fat grafts. Put plainly: Extent of apoptosis in fat grafts (TUNEL assay). It counts as in vivo, CD-1 nude mice. The settings on record: VEGF-treated (200 ng/100 μl PBS) vs PBS-treated fat grafts; week 15. Here is the method:
The extent of apoptosis in all fat grafts was assessed by the terminal deoxyuridine triphosphate nick end labeling (TUNEL) assay using a commercial kit (ApopTag® Plus Fluorescein Kit, CHEMICON, CA, USA), in accordance with the manufacturer's instructions. Duplicates were carried out for each sample and were processed by fluorescence-activated cell sorting (FACS, Becton Dickinson, N.J., USA). Data was analyzed using the Macintosh CELLQuest software program (Becton Dickinson).

Assay [8] deals with human fat grafts. Put plainly: Histological analysis of the dissected fat grafts (grades 0 to 5). In kind it is in vivo, CD-1 nude mice. The conditions noted are these: grade on a scale of 0 to 5; VEGF 200 ng/100 μl PBS; week 15. The procedure:
The first study comprised 30 seven-week-old female CD-1 nude mice (Harlan, Jerusalem, Israel). These mice were housed in cages in a room with an artificial 12-h light/dark cycle at a constant temperature range (24±2° C.) and relative humidity (55±10%). The mice were acclimated for one week prior to the study, and fed a standard laboratory chow and water ad libitum. The 30 mice were randomly divided into three equal groups and treated as follows: Group 1 mice were injected with 1 ml of human fat and were treated with sterile PBS (control group). Group 2 mice were injected with 1 ml human fat and were treated with 1000 IU/kg EPO (low-dose EPO group). Group 3 mice were injected with 1 ml human fat and were treated with 5000 IU/kg EPO (high-dose EPO group). The fat was injected subcutaneously into the scalp using a 14G needle while the animals were manually restrained. Immediately following fat transplantation, the PBS-treated fat grafts were injected with 100 μl PBS (control group), and the EPO-treated fat grafts were injected with either 20 IU EPO/100 μl PBS (low-dose EPO group) or 100 IU EPO/100 μl PBS (high-dose EPO group) every three days for 18 days (a total of 6 injections). EPO was purchased as an injection ampoule (ARANESP®, Amgen AG, Zug, Switzerland) which contained 150 μg/ml (18,000 IU) of EPO.
The second animal study comprised 20 seven-week-old female CD-1 nude mice, and differed from the first study in that the fat was treated with VEGF (2 μg/ml, Sigma Aldrich, Mo., USA) following implantation. 10 mice were injected with fat followed by 200 ng VEGF/100 μl PBS injections every three days for a total of 18 days. The remaining 10 mice made up a second control group that was treated in an identical manner to the control group in the first study. Post-operative analgesics and antibiotics were not administered to the mice in the two experiments.
as §1

Consider `CCN(CC)CCCCNc1ncc2cc(-c3cc(OC)cc(OC)c3)c(NC(=O)NC(C)(C)C)nc2n1` [PD173074], for which the HUVEC proliferation result in assay [1] was “reduced HUVEC proliferation significantly”.
With bevacizumab [reference compound], the HUVEC proliferation entry in assay [1] is recorded as “reduced HUVEC proliferation significantly”. The HUVEC tube formation result in assay [2] (0.25 mg/ml bevacizumab in VEGF-treated HUVECs) is recorded as “substantially reduced”.
Regarding tyrphostin AG 1296, in assay [1], the HUVEC proliferation result is reported as “reduced HUVEC proliferation significantly”.
For “vascular endothelial growth factor [VEGF]”, the “microvascular density (MVD)” value in assay [3] (VEGF-treated (200 ng/100 μl PBS) vs PBS-treated fat grafts, week 15) was “higher than, but not statistically different from”. In addition, in assay [3] (VEGF-treated fat grafts (data not shown)), the “vessel morphology in fat grafts” value was “unorganized vessel formation and perivascular hemorrhage”. For the same molecule, the “expression levels of caspase 3 and cytochrome c” value in assay [4] is given as “no statistical differences”. In assay [5], the “VEGF content in fat grafts” value is “higher than, but not statistically different from”. In assay [6], the “fat graft Volume” value was found to be 0.36 ± 0.2 mL and the “fat graft Weight” value is 0.35 ± 0.2 g. Further, the “extent of apoptosis (TUNEL)” value in assay [7] was “greater than that in the PBS-treated fat grafts”. Further, in assay [8], the Cyst/Vacuoles is 3.3 ± 1.0, the Fibrosis is given as 2.9 ± 0.7, the Inflammation amounted to 4.0 ± 1.2 and the Integration amounted to 3.2 ± 0.9. Also, the HUVEC tube formation entry in assay [2] (200 ng/ml VEGF, without bevacizumab (FIG. 7B)) is “significantly enhanced”.
